Active and inactive are the calls of the source. No rule for the calls is given here.
Test system: CCRIS mutagenicity, Ames/micronucleus/aberration tests
Test: CCRIS mutagenicity studies
[1] = Test System: AMES SALMONELLA TYPHIMURIUM, Strain/Indicator: TA98, Metabolic Activation: NONE, Method: PREINCUBATION
[2] = Test System: AMES SALMONELLA TYPHIMURIUM, Strain/Indicator: TA100, Metabolic Activation: NONE, Method: PREINCUBATION
[3] = Test System: AMES SALMONELLA TYPHIMURIUM, Strain/Indicator: TA1535, Metabolic Activation: NONE, Method: PREINCUBATION

## O=Nc1ccc2ccc3c4ccccc4cc4ccc1c2c43
Test System: AMES SALMONELLA TYPHIMURIUM, Strain/Indicator: TA98 (1,8-DNP6), Metabolic Activation: NONE, Method: STANDARD PLATE
  mutagenic call: active; positive
Test System: AMES SALMONELLA TYPHIMURIUM, Strain/Indicator: TA98 (NR), Metabolic Activation: NONE, Method: STANDARD PLATE
  mutagenic call: active; positive
Test System: AMES SALMONELLA TYPHIMURIUM, Strain/Indicator: TA98, Metabolic Activation: NONE, Method: STANDARD PLATE
  mutagenic call: active; positive
Test System: CHINESE HAMSTER OVARY, Strain/Indicator: CHO-K1-BH4 (HGPRT), Metabolic Activation: NONE
  mutagenic call: active; positive

## COc1nsc2cc(N)ccc12
Test System: AMES SALMONELLA TYPHIMURIUM, Strain/Indicator: TA98, Metabolic Activation: S-9, Method: STANDARD PLATE
  mutagenic call: active; positive

## OCCCBr
Test System: AMES SALMONELLA TYPHIMURIUM, Strain/Indicator: TA97, Metabolic Activation: HAMSTER, LIVER, S-9, AROCLOR 1254 (10%), Method: PREINCUBATION
  mutagenic call: inactive; negative
Test System: AMES SALMONELLA TYPHIMURIUM, Strain/Indicator: TA97, Metabolic Activation: NONE, Method: PREINCUBATION
  mutagenic call: inactive; negative
Test System: AMES SALMONELLA TYPHIMURIUM, Strain/Indicator: TA97, Metabolic Activation: RAT, LIVER, S-9, AROCLOR 1254 (10%), Method: PREINCUBATION
  mutagenic call: inactive; negative
Test System: AMES SALMONELLA TYPHIMURIUM, Strain/Indicator: TA98, Metabolic Activation: HAMSTER, LIVER, S-9, AROCLOR 1254 (10%), Method: PREINCUBATION
  mutagenic call: inactive; negative
[1]
  mutagenic call: inactive; negative
Test System: AMES SALMONELLA TYPHIMURIUM, Strain/Indicator: TA98, Metabolic Activation: RAT, LIVER, S-9, AROCLOR 1254 (10%), Method: PREINCUBATION
  mutagenic call: inactive; negative
Test System: AMES SALMONELLA TYPHIMURIUM, Strain/Indicator: TA100, Metabolic Activation: HAMSTER, LIVER, S-9, AROCLOR 1254 (10%), Method: PREINCUBATION
  mutagenic call: active; positive
[2]
  mutagenic call: active; positive
Test System: AMES SALMONELLA TYPHIMURIUM, Strain/Indicator: TA100, Metabolic Activation: RAT, LIVER, S-9, AROCLOR 1254 (10%), Method: PREINCUBATION
  mutagenic call: active; positive
Test System: AMES SALMONELLA TYPHIMURIUM, Strain/Indicator: TA1535, Metabolic Activation: HAMSTER, LIVER, S-9, AROCLOR 1254 (10%), Method: PREINCUBATION
  mutagenic call: active; positive
[3]
  mutagenic call: active; positive
Test System: AMES SALMONELLA TYPHIMURIUM, Strain/Indicator: TA1535, Metabolic Activation: RAT, LIVER, S-9, AROCLOR 1254 (10%), Method: PREINCUBATION
  mutagenic call: active; positive

## C=CCBr
End Point: IN VITRO CHROMOSOMAL ABERRATIONS, Test System: CHL CELLS, Metabolic Activation: NONE
  mutagenic call: active; positive (structural changes)
End Point: IN VITRO CHROMOSOMAL ABERRATIONS, Test System: CHL CELLS, Metabolic Activation: RAT, LIVER, S-9, SODIUM PHENOBARBITAL AND 5,6-BENZOFLAVONE
  mutagenic call: inactive; negative; authors report equivocal results for structural changes at 0.06 mg/ml
End Point: In vivo micronucleus, Species: Mouse, Strain/Sex: C57BL/6/Male, Route: Oral
  mutagenic call: inactive; negative
End Point: In vivo micronucleus, Test System: Peripheral blood normochromatic erythrocytes, Species: Mouse, Strain/Sex: C57BL/6/Female, Route: Oral
  mutagenic call: inactive; negative
End Point: In vivo micronucleus, Test System: Peripheral blood normochromatic erythrocytes, Species: Mouse, Strain/Sex: FVB/N/Female, Route: Oral
  mutagenic call: inactive; negative
End Point: In vivo micronucleus, Test System: Peripheral blood normochromatic erythrocytes, Species: Mouse, Strain/Sex: FVB/N/Male, Route: Oral
  mutagenic call: inactive; negative
End Point: In vivo micronucleus, Test System: Peripheral blood normochromatic erythrocytes, Species: Mouse, Strain/Sex: P53 Haploinsufficient/Female, Route: Oral
  mutagenic call: inactive; negative
End Point: In vivo micronucleus, Test System: Peripheral blood normochromatic erythrocytes, Species: Mouse, Strain/Sex: P53 Haploinsufficient/Male, Route: Oral
  mutagenic call: inactive; negative
End Point: In vivo micronucleus, Test System: Peripheral blood normochromatic erythrocytes, Species: Mouse, Strain/Sex: Tg.AC Hemizygous/Female, Route: Oral
  mutagenic call: inactive; negative
End Point: In vivo micronucleus, Test System: Peripheral blood normochromatic erythrocytes, Species: Mouse, Strain/Sex: Tg.AC Hemizygous/Male, Route: Oral
  mutagenic call: inactive; negative
Test System: Ames Salmonella typhimurium, Strain/Indicator: TA98, Metabolic Activation: Hamster, Liver, S-9, Aroclor 1254 (30%), Method: Standard plate
  mutagenic call: inactive; negative
Test System: Ames Salmonella typhimurium, Strain/Indicator: TA98, Metabolic Activation: None, Method: Standard plate
  mutagenic call: inactive; negative
Test System: Ames Salmonella typhimurium, Strain/Indicator: TA98, Metabolic Activation: Rat, Liver, S-9, Aroclor 1254 (30%), Method: Standard plate
  mutagenic call: inactive; negative
Test System: Ames Salmonella typhimurium, Strain/Indicator: TA100, Metabolic Activation: Hamster, Liver, S-9, Aroclor 1254 (30%), Method: Standard plate
  mutagenic call: active; positive (weak response)
Test System: Ames Salmonella typhimurium, Strain/Indicator: TA100, Metabolic Activation: None, Method: Standard plate
  mutagenic call: active; positive
Test System: Ames Salmonella typhimurium, Strain/Indicator: TA100, Metabolic Activation: Rat, Liver, S-9, Aroclor 1254 (30%), Method: Standard plate
  mutagenic call: active; positive

## C=CC=O
End Point: IN VITRO CHROMOSOMAL ABERRATIONS, Test System: CHINESE HAMSTER OVARY CELLS, Metabolic Activation: NONE
  mutagenic call: inactive; negative
End Point: IN VITRO CHROMOSOMAL ABERRATIONS, Test System: CHINESE HAMSTER OVARY CELLS, Metabolic Activation: RAT, LIVER, S-9, AROCLOR 1254
  mutagenic call: inactive; negative
[1]
  mutagenic call: active; positive
Test System: AMES SALMONELLA TYPHIMURIUM, Strain/Indicator: TA100, Metabolic Activation: GLUTATHIONE, Method: PREINCUBATION
  mutagenic call: active; positive
[2]
  mutagenic call: active; positive
Test System: AMES SALMONELLA TYPHIMURIUM, Strain/Indicator: TA100, Metabolic Activation: RAT, LIVER, S-9, AROCLOR 1254, Method: PREINCUBATION
  mutagenic call: active; positive
Test System: AMES SALMONELLA TYPHIMURIUM, Strain/Indicator: TA102, Metabolic Activation: NONE, Method: STANDARD PLATE
  mutagenic call: inactive; negative
Test System: AMES SALMONELLA TYPHIMURIUM, Strain/Indicator: TA104, Metabolic Activation: GLUTATHIONE, Method: PREINCUBATION
  mutagenic call: active; positive
Test System: AMES SALMONELLA TYPHIMURIUM, Strain/Indicator: TA104, Metabolic Activation: NONE, Method: PREINCUBATION
  mutagenic call: active; positive
[3]
  mutagenic call: inactive; negative
Test System: AMES SALMONELLA TYPHIMURIUM, Strain/Indicator: TA1535, Metabolic Activation: RAT, LIVER, S-9, AROCLOR 1254, Method: PREINCUBATION
  mutagenic call: inactive; negative
Test System: AMES SALMONELLA TYPHIMURIUM, Strain/Indicator: TA1537, Metabolic Activation: NONE, Method: PREINCUBATION
  mutagenic call: inactive; negative
Test System: AMES SALMONELLA TYPHIMURIUM, Strain/Indicator: TA1537, Metabolic Activation: RAT, LIVER, S-9, AROCLOR 1254, Method: PREINCUBATION
  mutagenic call: inactive; negative
Test System: AMES SALMONELLA TYPHIMURIUM, Strain/Indicator: TA1538, Metabolic Activation: NONE, Method: PREINCUBATION
  mutagenic call: inactive; negative
Test System: AMES SALMONELLA TYPHIMURIUM, Strain/Indicator: TA1538, Metabolic Activation: RAT, LIVER, S-9, AROCLOR 1254, Method: PREINCUBATION
  mutagenic call: inactive; negative
Test System: AMES SALMONELLA TYPHIMURIUM, Strain/Indicator: TA2638, Metabolic Activation: NONE, Method: STANDARD PLATE
  mutagenic call: active; positive
Test System: CHINESE HAMSTER OVARY, Strain/Indicator: AS52/6-THIOGUANINE, Metabolic Activation: NONE, Method: STANDARD PLATE
  mutagenic call: inactive; negative
Test System: CHINESE HAMSTER OVARY, Strain/Indicator: CHO-K1-BH4 (HGPRT)/6-THIOGUANINE, Metabolic Activation: NONE
  mutagenic call: inactive; negative
Test System: CHINESE HAMSTER OVARY, Strain/Indicator: CHO-K1-BH4 (HGPRT)/6-THIOGUANINE, Metabolic Activation: RAT, LIVER, S-9, AROCLOR 1254
  mutagenic call: inactive; negative
Test System: CHINESE HAMSTER V-79, Strain/Indicator: V-79/6-THIOGUANINE, Metabolic Activation: NONE
  mutagenic call: active; positive
Test System: E. COLI, Strain/Indicator: WP2 (PKM101), Metabolic Activation: NONE, Method: STANDARD PLATE
  mutagenic call: inactive; negative
Test System: E. COLI, Strain/Indicator: WP2 UVRA (PKM101), Metabolic Activation: NONE, Method: STANDARD PLATE
  mutagenic call: inactive; negative
Test System: E. COLI, Strain/Indicator: WP2 UVRA, Metabolic Activation: NONE, Method: PREINCUBATION
  mutagenic call: inactive; negative

Source: PubChem BioAssay AID1259407 (Chemical Carcinogenesis Research Information System (CCRIS), 2018)
